According to patent publication US12358918B2, “Aryl hydrocarbon receptor (AHR) activator compounds as cancer therapeutics” (THE BROAD INSTITUTE, INC., priority 2018, dated 2025):
Where two headings read alike, the source gives them in different places.

Legend:
[1] = test system: MDA-MB-231 breast cancer cell lines; assay: cytotoxicity, control cells vs cells overexpressing CYP1A1; assay type: cell-based
From the text: The dependence of each compound's cytotoxic effects upon CYP1A1 was also examined, via screening of MDA-MB-231 breast cancer cell lines for cytotoxic response. The CYP1A1-dependence of the cytotoxic response of to each tested compound was specifically determined by comparing the cytotoxicity of each compound administered to control cells with that of the compound administered to corresponding cells that overexpressed CYP1A1. […]

[2] = biological target: T1, A3 receptors (Homo sapiens, UniProt P0DMS8); conditions: previously characterized; cited from earlier work
T1 sequence (P0DMS8 1-318): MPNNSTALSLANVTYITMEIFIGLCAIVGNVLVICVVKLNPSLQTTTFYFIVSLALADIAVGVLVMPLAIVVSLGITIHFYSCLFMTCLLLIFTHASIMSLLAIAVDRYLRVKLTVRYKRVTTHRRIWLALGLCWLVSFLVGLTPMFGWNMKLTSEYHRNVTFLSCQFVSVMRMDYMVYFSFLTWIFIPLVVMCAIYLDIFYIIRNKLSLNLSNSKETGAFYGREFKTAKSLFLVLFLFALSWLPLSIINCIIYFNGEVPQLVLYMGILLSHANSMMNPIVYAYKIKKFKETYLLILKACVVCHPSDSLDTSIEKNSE

[3] = test system: MDA-MB-468 and ZR51 breast cancer and JHH7 liver cancer cell lines
[4] = test system: 578 cancer cell lines; assay: PRISM multiplexed cellular viability screening; assay type: cell-based; conditions: relation to FOXA1 / FOXA1 target expression across cell lines
Protocol: The instant discovery was made using large-scale multiplex profiling of existing drugs against 578 cancer cell lines, employing a PRISM multiplexed cellular viability assay.
Parental cell lines were obtained from the Cancer Cell Line Encyclopedia (CCLE) project (1). PRISM cell line barcoding, pooling, and screening was performed as previously described with several improvements to the original method (2). First, the lentiviral vector was modified to encode the unique barcode identifier at the end of the puromycin resistance gene. This enables barcodes to be detected using a variant of the mRNA capture and Luminex detection method developed for the L1000 gene expression assay (3). Second, a set of ten inert barcodes were spiked-in to each well of each plate after cell lysis to control for variation in PCR amplification as detailed below.
Luminex technology produced .Ixb files containing data for each Luminex bead observed during detection. These .Ixb files were processed to compute Median Fluorescence Intensity (MFI) values, calculated as the median of the values obtained for all beads corresponding to a single PRISM barcode.
MFI values were log-transformed (log MFI) and used to perform basic quality control. To detect probable screening artifacts, log MFI values were centered to the median log MFI for each cell line on each plate in order to put the measurements from each cell line on the same scale. For each well on each plate, the median of these centered values was then standardized according to the global median and global MAD across all plate wells in the same position. Data from wells with a standardized score of greater than 5 or less than −5 were excluded from all further processing steps.
For each cell line on each plate, the distribution of MFI values observed for the DMSO-treated negative controls was compared to that of the positive controls using a robust form of the Strictly Standardized Mean Difference (SSMD*)′. Specifically, SSMD* was calculated as: […]
Data corresponding to SSMD values less than 2 were removed before calculating cell viability.
The data in the instant disclosure were produced according to two different screening protocols. In the PR500 protocol, ten inert barcodes were spiked-in to each well of each plate after cell lysis. For data produced using the PR500 protocol, normalized MFI (nMFI) values were computed by taking the ratio of each MFI value against the median of the inert barcodes within each well. […]
Cell viability was calculated as the ratio of nMFI to the median of the nMFI from the DMSO-treated negative controls for each cell line on each plate. […] The final viability values were calculated as the median of the batch-corrected cell viabilities from biological replicates for each cell line, compound and dose. […]

[5] = test system: Twelve different breast cancer cell lines; assay: adenosine receptor antagonists and agonists dosed on twelve breast cancer cell lines; assay type: cell-based; conditions: 32 adenosine receptor antagonists/agonists compared; FIG. 6B
[6] = test system: MDA-MB-468 breast cancer cells possessing AHR knockout; assay: dose response in AHR knockout (AHR_sg3) cells; assay type: cell-based; conditions: FIG. 17
From the text: (§1) Biological replicates were averaged and normalized to vehicle control. Dose curves were generated using Graphpad Prism.

[7] = test system: MDA-MB-468 breast cancer cells; assay: Western immunoblot of treated cells over 24 hours; assay type: cell-based; conditions: FIG. 18
Protocol: Adherent cells were washed once with cold 1×PBS (Corning #01018002) and lysed with RIPA buffer (Sigma #R0278) supplemented by protease and phosphatase inhibitors (Sigma). Protein content was quantified using the DC Protein Assay (BioRad #5000111). Samples were reduced with (loading buffer) and boiled at 95° C. before being resolved by SDS gel electrophoresis on 4-20% Tris/glycine gels (Invitrogen). Proteins were transferred using the IBlot2 (Thermo #IB21001) onto the iBlot™ 2 nitrocellulose Transfer Stacks (Thermo #IB23001). The membranes were then blocked in Odyssey Blocking Buffer (Li-COR #927-40000) for one hour, and then probed overnight with primary antibodies diluted in blocking buffer. The following day, membranes were washed 3×5 mins with 1×TBST and then probed with LiCOR Infrared secondary antibodies for 1 hour at room temperature. Membranes were washed an additional 3×5 mins in 1×TBST and then imaged using the LiCOR Imager. […]

[8] = test system: MDA-MB-468 and ZR51 breast cancer and JHH7 liver cancer cell lines; assay: 5 day cytotoxicity, control cells vs sgRNA knock out of AHR; conditions: cytotoxicity in control cells compared with AHR sgRNA knock out cells; FIGS. 23 and 24
[9] = test system: ZR-75-1 breast cancer cells; assay: Synergy/antagonism testing; assay type: cell-based; conditions: co-treatment with CGS-15943, 120H; FIG. 14
Protocol: 1000 cells per well were seeded in 384 well clear bottom tissue culture plates and incubated overnight at 37° C. and 4% CO2. The following day, compounds were dispensed in a combination grid format using the Tecan Digital Dispenser. Plates were incubated for 5 days and then viability was assayed using CellTiter-Glo® Cellular Viability Assay. Analysis and Synergy plots were generated using the publicly available Combenefit software package.
AHR has been previously described to bind a range of endogenous and exogenous aromatic ligands (Denison et al. Tox. Sci. 2004, see Table 2), resulting in the formation of a nuclear heterodimer with ARNT. The dimer then binds dioxin-responsive elements and drives gene expression, after nuclear translocation. AHR has been described to bind a wide range of aromatic substrates including agonists, antagonists, and modulators.

[10] = test system: ZR75, MDA-MB-468 and HCC1395 cell lines; assay: cytotoxicity of CGS-15943 analogs in sensitive and resistant cell lines; assay type: cell-based; conditions: IC50 tables of FIGS. 8A to 8D
From the text: as §1

For `Nc1nc2c(cnn2CCc2ccccc2)c2nc(-c3ccco3)nn12` [SCH-58261], which “CYP1A1-dependence of the cytotoxic response” value [1] is on record?
The value was “CYP1A1-dependent cytotoxic”.

What about the Ki [2] of the same compound?
The Ki was over 10 µM.

And the “AHR-dependence of the cytotoxic response” value [3]?
The value was “dependence upon AHR”.

And the “cell killing profile in PRISM” value [4]?
Its value is “cell killing profile specific for such FOXA1-dependent cancer cell lines”.

And the “cytotoxicity to breast cancer cell lines” value [5]?
The value was “cytotoxic”.

Which results are given for `Cc1cc(-c2nc3cc(F)ccc3s2)ccc1NC(=O)[C@@H](N)CCCCN.Cl.Cl` [Phortress]?
rescue of killing by AHR knockout ([6]; 10 μM): AHR knockout did not rescue cells from Phortress killing; cytotoxicity at high doses ([6]; AHR knockout cells): non-specific cytotoxicity at high doses; cell killing profile in PRISM [4]: more broadly cytotoxic; CYP1A1 expression ([7]; 24 hour time course): induced CYP1A1 expression; FOXA1 levels ([7]; 24 hour time course): maintenance of FOXA1 levels; DNA double stranded breaks (pH2A.X) and PARP cleavage ([7]; within 24 hours): induced DNA double stranded breaks

Which results are given for `Cc1ccc2cc3c(ccc4ccccc43)c3c2c1CC3` [3-Methylcholanthrene, reference compound]?
CYP1A1-dependence of the cytotoxic response ([1]; control MDA-MB-231 compared with cells overexpressing CYP1A1): CYP1A1-dependent cytotoxic; AHR-dependence of the cytotoxic response [8]: dependence upon AHR

Which “interaction with CGS-15943 (3D Synergy plot)” value [9] does the source give for `COc1ccc(-c2cc(=O)c3cc(OC)ccc3o2)c(OC)c1` here?
Its value is “pronounced antagonism to CGS-15943”.

For `Nc1nc2c(cnn2CCc2ccccc2)c2nc(-c3ccco3)nn12` [BRD-K81225797-001-02-3], which “killing of sensitive (ZR75, MDA-MB-468) versus resistant (HCC1395) cell lines” value [10] is on record?
Its value is “selective killing”.
